Measured values from US20220040304A1, “A COMPOSITION FOR CANCER CELL DEATH AND ITS USE” (Industry-University Cooperation Foundation Hanyang …, priority 2018, published 2022).

Assays:
BT-474 = experiment: Cell death with Co-h substrate by cell type (SYTOX Green or EthD-1/DAPI); assay type: cell-based, human; conditions: BT-474, protein 10 μM, Co-h 150 μM for 5 minutes
Experimental: (§1) The cells were seeded at 5×10^5 cells/mL in 96-well plates (SPL Cell Culture Plate, 96 well (SPL, Cat #30096)), and cultured at 37° C. for 24 hours (overnight). After the culture for 24 hours, the cells were washed with FBS & phenol red-free media, and 100 μL of FBS & phenol red-free media containing a purified protein (final concentration: 10 μM) was added, followed by reaction at 37° C. for 24 hours.
(§2) Subsequently, the cells were washed with FBS & phenol red-free media, and 100 μL of FBS & phenol red-free media was added. 100 μL of FBS & Phenol red-free media (RPMI) containing a Co-h substrate solution (final concentration: 150 μM) was added, followed by reaction at 37° C. for 5 minutes.
(§3) After the reaction, 50 μL of SYTOX Green (final concentration: 261 nM) or 90 μL of ethidium homodimer (EthD-1) (final concentration 1×), which stains DNA of dead cells, was added, followed by reaction at 37° C. for 30 minutes. 10 μL of DAPI staining DNA of live cells was added, followed by reaction for 5 minutes. Cell death was confirmed by observing KillerRed, SYTOX Green, MiniSOG, EthD-1 and DAPI fluorescence using a confocal microscope.

MCF-10A = experiment: as above; assay type: cell-based, human; conditions: protein 10 μM, Co-h 150 μM for 5 minutes
Experimental: as §1, §2, §3

MCF-7 = experiment: as above; assay type: cell-based, human; conditions: MCF-7, protein 10 μM, Co-h 150 μM for 5 minutes
Experimental: as §1, §2, §3

MDA-MB-231 = experiment: as above; assay type: cell-based, human; conditions: MDA-MB-231, protein 10 μM, Co-h 150 μM for 5 minutes
Experimental: as §1, §2, §3

MDA-MB-435 = experiment: as above; assay type: cell-based, human; conditions: MDA-MB-435, protein 10 μM, Co-h 150 μM for 5 minutes
Experimental: as §1, §2, §3

SK-BR-3 = experiment: as above; assay type: cell-based, human; conditions: SK-BR-3, protein 10 μM, Co-h 150 μM for 5 minutes
Experimental: as §1, §2, §3

[1] = Bioluminescence assay of purified proteins with Co-h substrate (BRET); assay type: physicochemical; conditions: protein 1 μM, Co-h 50 μM, 1×PBS
Experimental: In addition, 100 μL of buffer (1×PBS) containing the protein purified in Example 1 (final concentration: 1 μM) was dispensed into a 96-well plate (SPL Cell Culture Plate, 96 well (SPL, Cat #30196)), and bioluminescence assay was then performed using 50 μL of buffer (1×PBS) containing a Co-h substrate solution (final concentration: 50 μM), which is a wild-type 2-deoxy derivative. Bioluminescence intensity was immediately measured at a wavelength of 300 to 800 nm using a Thermo Scientific™ Varioskan™ Flash Multimode Reader.

| Substance | cell death with Co-h substrate (BT-474) | cell death with Co-h substrate (MCF-10A) | cell death with Co-h substrate (MCF-7) | cell death with Co-h substrate (MDA-MB-231) | cell death with Co-h substrate (MDA-MB-435) | cell death with Co-h substrate (SK-BR-3) | emission in bioluminescence assay (BRET) [1] |
| --- | --- | --- | --- | --- | --- | --- | --- |
| RLuc8-MS: fusion protein of RLuc8 and MiniSOG without lead peptide, 53 kDa | none of the six breast cancer cell lines were killed | none of the six breast cancer cell lines were killed | none of the six breast cancer cell lines were killed | none of the six breast cancer cell lines were killed | none of the six breast cancer cell lines were killed | none of the six breast cancer cell lines were killed | – |
| MS: first protein MiniSOG, ROS-generating protein (singlet oxygen), expressed from pRSET-MiniSOG, 13 kDa [reference compound] | – | – | – | – | – | – | 500 nm |
